Seven compounds from paper PMC12673918, “Design, Synthesis, and Selective Antiproliferative Activity of Indolizine Derivatives as Microtubule Destabilizers” (Archiv Der Pharmazie, 2025) can be followed below.

The subject of one experiment is tubulin. The experiment in a line: Tubulin polymerization (inhibition) assay kit. To be noted: for effect on tubulin polymerization curves (RFU): compounds 5 µM, vs control and paclitaxel; for IC50: n = 2. In kind it is biochemical. As for the experimental part: To evaluate the effect of the compounds on tubulin polymerization, the Tubulin Polymerization Assay Kit (Cytoskeleton Inc.) was used according to the manufacturer's instructions. Briefly, 5 µL of the compounds (final concentration ranging from 0.1 to 100 µM) were pipetted per well into a pre‐warmed 96‐well black‐bottom plate at 37°C. After 1 min, 55 µL of the tubulin reaction mix (1X Buffer 1, 0.7X Tubulin Glycerol Buffer, 1 mM GTP, and 2 mg/mL tubulin) was added to each well. Next, after 5 s of shaking, fluorescence detection (excitation: 340–360 nm, emission: 410–460 nm) was performed using a microplate fluorimeter. […] Data were plotted, and IC₅₀ values were determined by nonlinear regression using GraphPad Prism software 9.0.
^c Tubulin polymerization was evaluated using a commercial assay kit, following standard procedures. Compounds were incubated with tubulin, and fluorescence was measured over time to generate kinetic curves and determine the maximum polymerization rate (Vmax). These experiments were carried out in duplicate.

The subject of experiment [1] is BT‐20 breast cancer cells. The experiment is described as follows: Cell‐cycle assay by flow cytometry. In kind it is cell-based. To be noted: 2.5 µM, 24 h. As for the experimental part: BT‐20 cells were seeded in 10 cm plates (1.5 × 10⁶ cells/plate) and incubated at 37°C with 5% CO₂ for 24 h. Subsequently, the cells were treated with different compounds at a concentration of 2.5 µM for 24 h. After treatment, the cells were collected by centrifugation and fixed in cold 70% ethanol for 1 h at 4°C. The cells were then washed, collected by centrifugation, and treated with RNase A (100 μg/mL, Sigma‐Aldrich) for 30 min at 37°C, followed by staining with propidium iodide (50 μg/mL) for 15 min at 37°C. Finally, the percentages of cells in each phase of the cell cycle were determined using FACSCalibur flow cytometry (BD Biosciences—San Jose, CA, USA). Cell‐cycle distribution was analyzed using ModFit LT V3.3 software.
On the technique in general: A flow cytometer gives signals particle by particle.

For the next experiment, the target named is T1, human P2X4 receptor (Homo sapiens, UniProt Q99571).
T1 construct: expressed in transfected cells; host or cells: human 1321N1 astrocytoma cells
T1 sequence (Q99571 1-388): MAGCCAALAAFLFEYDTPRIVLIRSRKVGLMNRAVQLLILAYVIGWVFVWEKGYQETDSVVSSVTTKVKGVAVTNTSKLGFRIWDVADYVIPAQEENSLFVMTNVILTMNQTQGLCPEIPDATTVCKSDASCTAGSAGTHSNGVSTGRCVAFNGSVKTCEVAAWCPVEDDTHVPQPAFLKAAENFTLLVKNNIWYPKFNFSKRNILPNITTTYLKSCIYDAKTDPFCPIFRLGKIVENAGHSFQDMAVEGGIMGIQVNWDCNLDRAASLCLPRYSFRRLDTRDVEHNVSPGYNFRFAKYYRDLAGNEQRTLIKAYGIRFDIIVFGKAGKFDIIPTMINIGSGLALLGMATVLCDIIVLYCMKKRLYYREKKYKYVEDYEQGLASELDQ
The experiment is described as follows: Ca2+‐flux assay for the hP2X4 receptor. In kind it is cell-based. To be noted: read-out: % Inhibition of P2X4R at 10 µM compounds’ concentration. As for the experimental part: Human 1321N1 astrocytoma cells stably expressing the human P2X4 receptor (generated in‐house) were cultured in Dulbecco's Modified Eagle Medium supplemented with 9% (v/v) FCS, 1% (v/v) Penicillin/Streptomycin (10000 I.U./mL, 10 mg/mL in 0.9% NaCl) and puromycin (1 µg/mL) as a selection antibiotic at 37°C and 5% CO2. Cells were subcultured in cell culture 75 cm^2 flasks and split every 2–4 days (1:5; 1:6) once confluent.
1321N1 cells stably expressing human P2X4 receptor were seeded into black‐walled 96‐well plates (Thermo Fisher Scientific) at 2.5 × 10^4 cells/well and incubated at 37°C for 24–48 h. All test compounds were diluted in assay buffer solution (SBS: 135 mM NaCl; 5 mM KCl; 1 mM MgCl2.6 H2O; 1.8 mM CaCl2; 5.6 mM D‐Glucose; 10 mM HEPES, 0.1% (m/v) BSA, 0.05% (m/v) gelatine, 2.3 mM probenecid). The culture medium was removed, and 100 µL of 4 μM fluorescent Ca^2+ indicator Calbryte520AM in SBS was added and incubated at 37°C for 1 h. The dye solution was then removed, 100 µL of SBS solution and 50 µL of antagonist dilutions (10^–5–10^–9 M) in SBS were added, and the cells were incubated at room temperature for an extra 30 min. Finally, 50 µL of ATP (at a concentration of the previously determined EC50‐ value) was added by using FlexStation 3 Multi‐Mode Microplate Reader (Molecular Devices, San Jose, CA, USA, Software SoftMax7 Pro). The changes in intracellular Ca^2+ ion concentrations were monitored over 200 s (20 s baseline) by measuring the fluorescence signal at λ ex = 494 nm and λ em = 516 nm ([…] cut‐off). The concentration‐dependent decrease in Ca^2+‐flux, expressed as RFU, was plotted against the concentrations of the compounds.

In experiment [2] the test system is CAL‐27, BT‐20 and HGC‐27 cancer cell lines. The experiment is described as follows: Resazurin antiproliferative screening, cancer cell line panel. The following applies: for level of inhibition in the 50 µM screening: 70% inhibition threshold; for IC50: range over CAL‐27, BT‐20, HGC‐27, read-out: IC50 values across cancer cell lines. In kind it is cell-based. The procedure:
The tongue squamous cell carcinoma cell line CAL‐27 (ATCC CRL‐2095), breast carcinoma BT‐20 (ATCC HTB‐19), gastric carcinoma HGC‐27 (BCRJ Code 0310), and normal oral fibroblast OHMF (culture of fibroblasts derived from human oral healthy mucosa, approved by the Research Ethics Committee of the University of São Paulo, Campus of Ribeirão Preto, Brazil (with protocol number 049) were cultured in DMEM medium (DMEM, Sigma‐Aldrich, St. Louis, MO, USA) supplemented with 10% fetal bovine serum and a solution of penicillin (100 U/mL) and streptomycin (100 μg/mL). The cultures were maintained in a humidified incubator with 5% CO₂ at 37°C.
Cell viability was analyzed using the resazurin assay. For this, cells were seeded in 96‐well plates (1 × 10^3 cells per well) and incubated at 37°C with 5% CO₂ overnight for cell adhesion. Subsequently, the cells were treated with different compounds (0–50 µM) for 72 h. After treatment, the medium was replaced with phenol‐free DMEM medium (Sigma‐Aldrich) containing resazurin at a concentration of 44 µM (Sigma‐Aldrich). After incubation for 4 h at 37°C, fluorescence detection was performed (excitation 530/25 nm, emission 590/35 nm) using a microplate fluorimeter (Synergy 2, Biotek). Initial cell growth inhibition assays were performed in triplicate or quadruplicate, while IC50 determinations were conducted in triplicate. Data were plotted, and IC₅₀ values were determined by nonlinear regression using GraphPad Prism software 9.0.
A general note: The colour change of resazurin is a common sign of viable cells or microbes.

On to `CCCc1cn2cc(OC)ccc2c1C(=O)c1cc(OC)c(OC)c(OC)c1` [Compound 8h, (6‐methoxy‐2‐propylindolizin‐1‐yl)(3,4,5‐trimethoxyphenyl)methanone], for which, in the experiment on tubulin, the “effect on tubulin polymerization curves (RFU)” value is “most potent” and the IC50 (as a rule, the concentration that gives 50% inhibition) is 10.9 µM. The “cell‐cycle distribution” value in experiment [1] is “significant accumulation of cells in the G2/M phase”. Further, the inhibition at 10 µM at human P2X4 receptor amounted to 6%. Besides, in experiment [2], the “level of inhibition in the 50 µM screening” value (“level of inhibition” below) is recorded as 89.5% to 73.1 and the IC50 was 0.047 to 0.117 µM.

For the compound `COc1ccc2c(C(=O)c3cc(OC)c(OC)c(OC)c3)c(C(C)(C)C)cn2c1` [Compound 8b, [2‐(Tert‐Butyl)‐6‐Methoxyindolizin‐1‐yl](3,4,5‐Trimethoxyphenyl)Methanone], the inhibition at 10 µM at human P2X4 receptor was -6%. Further, the “level of inhibition” value in experiment [2] is listed as 89.5% to 73.1.

For the compound `COc1ccc2c(C(=O)c3cc(OC)c(OC)c(OC)c3)c(-c3ccc(C)cc3)cn2c1` [Compound 8j, [6‐methoxy‐2‐(p ‐tolyl)indolizin‐1‐yl](3,4,5‐trimethoxyphenyl)methanone], on human P2X4 receptor, the inhibition at 10 µM came to 0%. The “level of inhibition” value in experiment [2] is reported as 89.5% to 73.1.

On to `COc1ccc2c(C(=O)c3cc(OC)c(OC)c(OC)c3)c(C)cn2c1` [Compound 8a, (6‐methoxy‐2‐methylindolizin‐1‐yl)(3,4,5‐trimethoxyphenyl)methanone], for which the inhibition at 10 µM on human P2X4 receptor was 5%.

`COc1ccc2c(C(=O)c3cc(OC)c(OC)c(OC)c3)c(C(F)(F)F)cn2c1` [Compound 8e, [6‐methoxy‐2‐(trifluoromethyl)indolizin‐1‐yl](3,4,5‐trimethoxyphenyl)methanone]: in the experiment on tubulin, the “effect on tubulin polymerization curves (RFU)” value is recorded as “most potent” and it took 9.3 µM to reach half-maximal inhibition (IC50). In addition, in experiment [1], the “cell‐cycle distribution” value is reported as “significant accumulation of cells in the G2/M phase”. Also, the inhibition at 10 µM on human P2X4 receptor is -9%. Besides, in experiment [2], the “level of inhibition” value was 89.5% to 73.1 and the IC50 was in the range of 0.047 to 0.117 µM.

In the case of `COc1ccc(-c2cn3cc(OC)ccc3c2C(=O)c2cc(OC)c(OC)c(OC)c2)cc1` [Compound 8k, [6‐methoxy‐2‐(4‐methoxyphenyl)indolizin‐1‐yl](3,4,5‐trimethoxyphenyl)methanone], the inhibition at 10 µM on human P2X4 receptor turned out to be 7%. The “level of inhibition” value in experiment [2] is reported as 89.5% to 73.1.

Turning to `COc1ccc2c(C(=O)c3ccc(Cl)c(Cl)c3)ccn2c1` [Compound 7e, (6‐methoxyindolizin‐1‐yl)(3,4‐dichlorophenyl)methanone], the inhibition at 10 µM on human P2X4 receptor is -3%.
